Reference: patent US20100063155A1, “N-(3-PHENYLPROPYL)BENZAMIDE DERIVATIVES” (priority 2007, published 2010)

Test system: Alternaria brassicae
Experiment: In vivo test on Alternaria brassicae (leaf spot of crucifers)
Details: 500 ppm, preventive spray on radish plants (Pernot variety), contaminated after 24 hours, grading 6 to 7 days after contamination vs control plants
Experimental: The active ingredients tested are prepared by potter homogenisation in a mixture of acetone/tween/water. This suspension is then diluted with water to obtain the desired active material concentration.
Radish plants (Pernot variety), sown on a 50/50 peat soil-pozzolana substrate in starter cups and grown at 18-20° C., are treated at the cotyledon stage by spraying with the active ingredient prepared as described above.
Plants, used as controls, are treated with the mixture of acetone/tween/water not containing the active material.
After 24 hours, the plants are contaminated by spraying them with an aqueous suspension of Alternaria brassicae spores (40,000 spores per cm^3). The spores are collected from a 12 to 13 days-old culture.
The contaminated radish plants are incubated for 6-7 days at about 18° C., under a humid atmosphere.
Grading is carried out 6 to 7 days after the contamination, in comparison with the control plants.

## O=C(NCCCc1ccc(Cl)cc1Cl)c1ccccc1C(F)(F)F [Compound 1, N-[3-(2,4-dichlorophenyl)propyl]-2-(trifluoromethyl)benzamide]
  protection: at least 70%
